Laboratory results: patent US20150065440A1 (Progen Pharmaceuticals Limited, priority 2007, published 2015)
Like-named read-outs stand apart in the source and are kept apart here.

How the values were obtained:
[1] = biological target: T1, VEGF (Homo sapiens, UniProt P15692); experiment: Growth factor binding assay (SPR solution affinity), VEGF; conditions: HBS-EP buffer, 25° C.
T1 sequence (P15692 207-395): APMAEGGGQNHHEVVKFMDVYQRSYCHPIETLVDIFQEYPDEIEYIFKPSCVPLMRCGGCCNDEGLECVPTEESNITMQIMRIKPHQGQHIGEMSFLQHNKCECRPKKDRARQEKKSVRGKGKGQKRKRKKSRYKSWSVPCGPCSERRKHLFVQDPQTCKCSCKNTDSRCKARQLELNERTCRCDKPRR
Procedure, shortened: (§1)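 Kd measured by SPR solution affinity: fixed growth factor with varying ligand competing for heparin-coated sensorchip, 25 °C. Buffer HBS-EP pH 7.4 (150 mM NaCl) for FGF-1 and VEGF; FGF-2 with 0.3 M NaCl. Duplicate values averaged.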

[2] = biological target: FGF-1 (Homo sapiens, UniProt P05230); experiment: Growth factor binding assay (SPR solution affinity), FGF-1; conditions: SPR, HBS-EP buffer, 25° C.; read-out: Kd FGF-1
Sequence of FGF-1 (P05230 whole entry, species assumed): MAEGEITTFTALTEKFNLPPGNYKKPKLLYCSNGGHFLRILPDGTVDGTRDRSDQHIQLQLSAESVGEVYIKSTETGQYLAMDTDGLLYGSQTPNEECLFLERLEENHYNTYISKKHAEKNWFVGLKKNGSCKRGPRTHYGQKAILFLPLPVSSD

[3] = biological target: FGF-2 (Homo sapiens, UniProt P09038); experiment: Growth factor binding assay (SPR solution affinity), FGF-2
Sequence of FGF-2 (P09038 143-288, species assumed): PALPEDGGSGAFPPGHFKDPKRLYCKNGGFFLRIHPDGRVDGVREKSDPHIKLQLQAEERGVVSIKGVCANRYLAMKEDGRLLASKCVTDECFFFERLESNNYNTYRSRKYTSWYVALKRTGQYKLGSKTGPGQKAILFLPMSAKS
Procedure, shortened: as §1

[4] = test system: pooled normal human plasma; experiment: Anticoagulant activity, APTT; conditions: 0.1 mg/mL in normal pooled human plasma
Description: APTT measurements were performed on a STAGO STA-Compact Coagulation Analyser using standard protocols according to the manufacturer's instructions. Unfractionated heparin (UFH) was used as a control.

[5] = test system: normal pooled human plasma; experiment: Anticoagulant activity, Heptest; conditions: 0.1 mg/mL in normal pooled human plasma
[6] = test system: HSV-2; experiment: Viral plaque number-reduction assay, HSV-2; conditions: for Selective index CC50/IC50 HSV-2: GMK AH1 cells; for HSV-2 IC50: viral plaques in GMK AH1 cells (Table 9)
Procedure, shortened: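 200 PFU virus premixed 10 min with compound (100 μg/mL screen) and kept throughout infection. HSV plaques in GMK AH1 cells, RSV (strain A-2) in HEp-2 cells. Methylcellulose overlay, 37 °C, crystal violet staining after 2 days (HSV-2) or 3 days (HSV-1); plaque numbers counted.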

[7] = test system: RSV; experiment: Viral plaque number-reduction assay, RSV; conditions: for Selective index CC50/IC50 RSV: HEp-2 cells; for RSV IC50: viral plaques (Table 9)
Description: African green monkey kidney (GMK AH1) cells^46 were cultured in Eagle's minimum essential medium (EMEM) supplemented with 2% calf serum, 0.05% Primaton RL substance (Kraft Inc., Norwich, USA) and antibiotics. Human epidermoid carcinoma (HEp-2) cells were cultured in Dulbecco's modified EMEM (DMEM) supplemented with 10% fetal calf serum and antibiotics. […] The RSV strain A-2^50 was used. The RSV stock was prepared as described by Hallak et al.^51 and stored at −70° C. in the presence of 40% sucrose^52.
The viral infectivity (the plaque number-reduction) assay and the plaque size-reduction assay were carried out as described previously^17. […] Subsequently, the cells were washed with 2 mL of EMEM and overlaid with 1% methylcellulose solution in EMEM. The plaques were visualized by staining with crystal violet solution after 2 (HSV-2) or 3 (HSV-1) days of incubation at 37° C. […] When the compounds were screened for anti-HSV or anti-RSV activity, mixtures of 200 PFU of the virus and the test compound (100 μg/mL) in serum-free EMEM were incubated for 10 min at room temperature before addition to cells and during the entire period of viral infection of cells and the development of viral plaques. In the plaque size-reduction assay, the compounds were added to cells (in methylcellulose overlay medium) after 2 h period of virus infection of cells in the absence of the inhibitor. After 2-3 days of incubation at 37° C., the viral plaques were visualized by staining the cells with 1% solution of crystal violet. For each compound tested, the images of twenty neighboring plaques were captured using a Leica DC300 digital camera attached to a Leitz-Wetzlar Diavert microscope. The area of each plaque was determined using IM500 image software (Leica). Similar protocols were used for RSV, except that the assays were performed in HEp-2 cells and DMEM supplemented with 2% heat-inactivated fetal calf serum was used instead of EMEM.

[8] = biological target: T2, recombinant human heparanase (Homo sapiens, UniProt Q9Y251); experiment: Heparanase inhibition assay (fondaparinux cleavage, WST-1); conditions: read-out: Ki Heparanase; IC50 converted into Ki; fondaparinux 100 μM, pH 5.0
T2 sequence (Q9Y251 158-543 limits assumed): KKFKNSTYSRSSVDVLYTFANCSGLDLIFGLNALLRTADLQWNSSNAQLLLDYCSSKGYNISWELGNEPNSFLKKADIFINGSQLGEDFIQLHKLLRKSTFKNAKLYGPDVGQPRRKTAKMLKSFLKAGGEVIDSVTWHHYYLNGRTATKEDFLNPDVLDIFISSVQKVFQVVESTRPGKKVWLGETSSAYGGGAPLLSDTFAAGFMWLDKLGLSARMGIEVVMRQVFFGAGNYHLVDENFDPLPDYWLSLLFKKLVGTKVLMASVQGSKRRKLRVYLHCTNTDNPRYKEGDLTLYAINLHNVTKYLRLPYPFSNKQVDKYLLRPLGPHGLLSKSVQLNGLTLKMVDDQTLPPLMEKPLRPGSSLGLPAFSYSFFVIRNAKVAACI
T2 sequence (Q9Y251 36-109 limits assumed): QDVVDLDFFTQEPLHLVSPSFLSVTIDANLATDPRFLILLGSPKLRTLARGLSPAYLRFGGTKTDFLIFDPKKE
Description: In the presence of an inhibitor the catalytic activity of heparanase is reduced, and the amount of disaccharide produced and the optical density of the solution are both decreased. The percent inhibition and IC50 of the inhibitor are determined from measurement of the optical density (OD) over a range of inhibitor concentrations.
Assays were carried out in 40 mM sodium acetate buffer, pH 5.0, as follows. […] A blue colour was developed by incubation of the plates at 60° C. for 60 min. […] The IC50 value for each compound was evaluated and converted into a Ki (inhibition constant) using the expression

[9] = SPR, HBS-EP buffer containing 0.3 M NaCl, 25° C.; read-out: Kd FGF-2

| SMILES | Kd [3, 9] [nM] | HSV-2 IC50 [6] [µg/mL] | RSV IC50 [7] [µg/mL] | Kd [1] [nM] | Kd [2] [nM] | APTT [4] [s] | Heptest [5] [s] | Selective index CC50/IC50 HSV-2 [6] | Selective index CC50/IC50 RSV [7] | Ki [8] [nM] | Kd ([3]; read-out: Kd FGF-2; SPR, HBS-EP buffer containing 0.3 M NaCl, 25° C.) [nM] | IC50 ([6]; Human alphaherpesvirus 2, read-out: HSV-2 IC50) [µg/mL] | IC50 ([7]; human respiratory syncytial virus, read-out: RSV IC50) [µg/mL] |
| --- | --- | --- | --- | --- | --- | --- | --- | --- | --- | --- | --- | --- | --- |
| CCCCCCCCCCCCOC1OC(COS(=O)(=O)O)C(OS(=O)(=O)O)C(OS(=O)(=O)O)C1OC1OC(COS(=O)(=O)O)C(OS(=O)(=O)O)C(OC2OC(COS(=O)(=O)O)C(OS(=O)(=O)O)C(OC3OC(COS(=O)(=O)O)C(OS(=O)(=O)O)C(OC4OC(COS(=O)(=O)O)C(OS(=O)(=O)O)C(OS(=O)(=O)O)C4OS(=O)(=O)O)C3OS(=O)(=O)O)C2OS(=O)(=O)O)C1OS(=O)(=O)O [Compound 4, Dodecyl 2,3,4,6-tetra-O-sodium sulfonato-α-D-mannopyranosyl-(1→3)-2,4,6-tri-O-sodium sulfonato-α-D-mannopyranosyl-(1→3)-2,4,6-tri-O-sodium sulfonato-α-D-mannopyranosyl-(1→3)-2,4,6-tri-O-sodium sulfonato-α-D-mannopyranosyl-(1→2)-3,4,6-tri-O-sodium sulfonato-α-D-mannopyranoside] | 480 ± 70 |  |  | 12 ± 3 | 6 ± 3 | 125.9 | 64.2 | > 444 | > 87 | 4.2 ± 0.5 |  |  |  |
| CC(C)CCCC(C)C1CCC2C3CCC4CC(OC5OC(COS(=O)(=O)O)C(OS(=O)(=O)O)C(OS(=O)(=O)O)C5OC5OC(COS(=O)(=O)O)C(OS(=O)(=O)O)C(OC6OC(COS(=O)(=O)O)C(OS(=O)(=O)O)C(OC7OC(COS(=O)(=O)O)C(OS(=O)(=O)O)C(OS(=O)(=O)O)C7OS(=O)(=O)O)C6OS(=O)(=O)O)C5OS(=O)(=O)O)CCC4(C)C3CCC12C [Compound 20, 3β-Cholestanyl 2,3,4,6-tetra-O-sodium sulfonato-α-D-mannopyranosyl-(1→3)-2,4,6-tri-O-sodium sulfonato-α-D-mannopyranosyl-(1→3)-2,4,6-tri-O-sodium sulfonato-α-D-mannopyranosyl-(1→2)-3,4,6-tri-O-sodium sulfonato-α-D-mannopyranoside] |  |  |  | 22 ± 6 | 0.6 ± 0.5 | 94.0 | 28.0 | 100 | 66 | 5.8 ± 1.5 | 160 ± 40 |  |  |
| CC(C)CCC[C@@H](C)[C@H]1CC[C@H]2[C@@H]3CC[C@H]4C[C@@H](O[C@H]5O[C@H](COS(=O)(=O)O)[C@@H](OS(=O)(=O)O)[C@H](OS(=O)(=O)O)[C@@H]5O[C@H]5O[C@H](COS(=O)(=O)O)[C@@H](OS(=O)(=O)O)[C@H](OS(=O)(=O)O)[C@@H]5OS(=O)(=O)O)CC[C@]4(C)[C@H]3CC[C@]12C [Compound 33, 3β-Cholestanyl 2,3,4,6-tetra-O-sodium sulfonato-α-D-mannopyranosyl-(1→2)-3,4,6-tri-O-sodium sulfonato-α-D-mannopyranoside] | 1570 ± 150 |  |  | 1300 ± 300 | 270 ± 30 | 40.6 | 25.5 |  |  | 22.3 ± 1.6 |  | 0.7 | 1.8 |

Continued, in another order:

| Kd [3, 9] [nM] | HSV-2 IC50 [6] [µg/mL] | RSV IC50 [7] [µg/mL] | SMILES | Kd [1] [nM] | Kd [2] [nM] | APTT [4] [s] | Heptest [5] [s] | Selective index CC50/IC50 HSV-2 [6] | Selective index CC50/IC50 RSV [7] | Ki [8] [nM] | Kd ([3]; read-out: Kd FGF-2; SPR, HBS-EP buffer containing 0.3 M NaCl, 25° C.) [nM] | IC50 ([6]; Human alphaherpesvirus 2, read-out: HSV-2 IC50) [µg/mL] | IC50 ([7]; human respiratory syncytial virus, read-out: RSV IC50) [µg/mL] |
| --- | --- | --- | --- | --- | --- | --- | --- | --- | --- | --- | --- | --- | --- |
| 490 ± 40 | 0.3 | 0.45 | CC(C)CCC[C@@H](C)[C@H]1CC[C@H]2[C@@H]3CCC4CC(O[C@H]5O[C@H](COS(=O)(=O)[O-])[C@@H](OS(=O)(=O)[O-])[C@H](O[C@H]6O[C@H](COS(=O)(=O)[O-])[C@@H](OS(=O)(=O)[O-])[C@H](O[C@H]7O[C@H](COS(=O)(=O)[O-])[C@@H](OS(=O)(=O)[O-])[C@H](OS(=O)(=O)[O-])[C@@H]7OS(=O)(=O)[O-])[C@@H]6OS(=O)(=O)[O-])[C@@H]5OS(=O)(=O)[O-])CC[C@]4(C)[C@H]3CC[C@]12C.[Na+].[Na+].[Na+].[Na+].[Na+].[Na+].[Na+].[Na+].[Na+].[Na+] (stereo partly drawn) [Compound 56, 3′-Cholestanyl 2,3,4,6-tetra-O-sodium sulfonato-α-D-mannopyranosyl-(1→3)-2,4,6-tri-O-sodium sulfonato-α-D-mannopyranosyl-(1→3)-3,4,6-tri-O-sodium sulfonato-α-D-mannopyranoside] | 90 ± 30 | 16 ± 7 | 58.5 | 24.2 |  |  | 10.5 ± 1.7 |  |  |  |
| 474 ± 1.4 | 0.24 | 0.39 | CC(C)CCC[C@@H](C)[C@H]1CC[C@H]2[C@@H]3CCC4C[C@@H](OCc5cn(CCCO[C@H]6O[C@H](COS(=O)(=O)[O-])[C@@H](OS(=O)(=O)[O-])[C@H](O[C@H]7O[C@H](COS(=O)(=O)[O-])[C@@H](OS(=O)(=O)[O-])[C@H](O[C@H]8O[C@H](COS(=O)(=O)[O-])[C@@H](OS(=O)(=O)[O-])[C@H](OS(=O)(=O)[O-])[C@@H]8OS(=O)(=O)[O-])[C@@H]7OS(=O)(=O)[O-])[C@@H]6OS(=O)(=O)[O-])nn5)CC[C@]4(C)[C@H]3CC[C@]12C.[Na+].[Na+].[Na+].[Na+].[Na+].[Na+].[Na+].[Na+].[Na+].[Na+] (stereo partly drawn) [Compound 60, 3-{4-(Cholestan-3β-yl-oxymethyl)-[1,2,3]triazol-1-yl}propyl 2,3,4,6-tetra-O-sodium sulfonato-α-D-mannopyranosyl-(1→3)-2,4,6-tri-O-sodium sulfonato-α-D-mannopyranosyl-(1→3)-3,4,6-tri-O-sodium sulfonato-α-D-mannopyranoside] | 260 ± 130 | 14.3 ± 3 | 71.4 | 26.4 |  |  | 8.4 ± 2.6 |  |  |  |
| 390 ± 90 | 0.15 | 0.23 | CC(C)CCC[C@@H](C)[C@H]1CC[C@H]2[C@@H]3CCC4CC(OCc5cn([C@@H]6O[C@H](COS(=O)(=O)[O-])[C@@H](O[C@H]7O[C@H](COS(=O)(=O)[O-])[C@@H](O[C@H]8O[C@H](COS(=O)(=O)[O-])[C@@H](OS(=O)(=O)[O-])[C@H](OS(=O)(=O)[O-])[C@H]8OS(=O)(=O)[O-])[C@H](OS(=O)(=O)[O-])[C@H]7OS(=O)(=O)[O-])[C@H](OS(=O)(=O)[O-])[C@H]6OS(=O)(=O)[O-])nn5)CC[C@]4(C)[C@H]3CC[C@]12C.[Na+].[Na+].[Na+].[Na+].[Na+].[Na+].[Na+].[Na+].[Na+].[Na+] (stereo partly drawn) [Compound 70, 4-(Cholestan-3-yl-oxymethyl)[1,2,3]triazol-1-yl 2,3,4,6-tetra-O-sodium sulfonato-α-D-glucopyranosyl-(1→4)-2,3,6-tri-O-sodium sulfonato-α-D-glucopyranosyl-(1→4)-1-deoxy-2,3,6-tri-O-sodium sulfonato-β-D-glucopyranoside] | 95 ± 8 | 9.7 ± 0.8 | 104.0 | 45.5 |  |  | 3.7 ± 0.8 |  |  |  |
